Patent US20160280743A1, “BACTERIAL MUTANTS AND METHODS OF USE” (priority 2015, published 2016)
In brackets after ≈: the same amount, converted by molar mass.

Columns and labels:
[1] = system: E. coli WT, WT-Pore, ΔTolC, ΔTolC-Pore; type: cell-based, Escherichia coli; conditions: E. coli
E. coli GD102 (ΔTolC) = conditions: E. coli ΔTolC without pore; 0.1% arabinose; LB, 37° C., 16 h
Description: (§1) Susceptibilities of E. coli and P. aeruginosa cells to different classes of antibiotics were determined by two-fold broth dilution method [1] with following modifications. Cells were grown in Luria-Bertani (LB) broth (tryptone 10 g/L, yeast extract 5 g/L and NaCl 5 g/L) with appropriate selection markers as needed, at 37° C. with shaking at 200 rpm. When needed, at OD600˜0.3, either L-arabinose (final concentration 0.1%) or IPTG (final concentration 0.1 mM) were added to induce the expression of the pore and cells were further incubated until OD600 reached 1.0. MICs of various antimicrobial agents were measured in 96-well micro-titer plates. For this purpose, exponentially growing cells were inoculated at a density of 10^5 cells/ml into wells containing LB medium in the presence of two-fold increasing concentrations of drugs under investigation at constant inducer concentration of 0.1% arabinose for E. coli or 0.1 mM IPTG for P. aeruginosa strains. Cell growth was determined visually or using Spark 10M microplate reader (Tecan) after incubation of the micro-titer plates at 37° C. for 16 h.
(§2) For this purpose, induced cells were dispensed into 96-well microplates with LB medium containing two-fold dilutions of an antibiotic of interest and a respective concentration of an inducer.

[2] = system: E. coli ΔTolC-Pore (GKCW103, FhuAΔC/Δ4L pore); conditions: 0.1% arabinose, LB, 37° C., 16 h
Description: as §1, §2

E. coli BW 25113 (WT) = assay: microbe, parasite or virus in culture; conditions: Escherichia coli, 16 h, read-out: MIC BW 25113 (WT) —
Description: as §1, §2

[3] = system: E. coli WT-Pore (GKCW101, FhuAΔC/Δ4L pore); assay: microbe, parasite or virus in culture; conditions: Escherichia coli, 16 h, read-out: MIC BW 25113 (WT) Pore
Description: as §1, §2

[4] = system: P. aeruginosa PAO1, PAO1-Pore, Δ3, Δ3-Pore; assay: Fold MIC change between P. aeruginosa strains (OM barrier, efflux); type: cell-based, Pseudomonas aeruginosa; conditions: P. aeruginosa
[5] = system: P. aeruginosa PAO1Δ3 (Δ3); conditions: P. aeruginosa Δ3 without pore; 0.1 mM IPTG; LB, 37° C., 16 h
Description: as §1, §2

P. aeruginosa PAO1 = assay: microbe, parasite or virus in culture; conditions: Pseudomonas aeruginosa, PAO1, 16 h, read-out: MIC PAO1 —
Description: as §1, §2

[6] = system: P. aeruginosa Δ3-Pore (GKCW116, FhuAΔC/Δ4L pore); assay: MIC, two-fold broth dilution, P. aeruginosa Δ3-Pore; conditions: P. aeruginosa Δ3-Pore; 0.1 mM IPTG; LB, 37° C., 16 h
Description: as §1, §2

Structure (SMILES) | Fold MIC change, Efflux, WT-Pore/ΔTolC-Pore [1] [fold] | Fold MIC change, Efflux, WT/ΔTolC [1] [fold] | Fold MIC change, OM barrier, WT/WT-Pore [1] [fold] | Fold MIC change, OM barrier, ΔTolC/ΔTolC-Pore [1] [fold] | MIC GD102 (ΔTolC) — (E. coli GD102 (ΔTolC)) [µg/mL] | MIC GD102 (ΔTolC) Pore [2] [µg/mL] | MIC (E. coli BW 25113 (WT)) [µg/mL] | MIC [3] [µg/mL] | Fold MIC change, Efflux, PAO1-Pore/Δ3-Pore [4] [fold] | Fold MIC change, Efflux, PAO1/Δ3 [4] | Fold MIC change, OM barrier, PAO1/PAO1-Pore [4] | Fold MIC change, OM barrier, Δ3/Δ3-Pore [4] [fold] | MIC Δ3 — [5] [µg/mL] | MIC (P. aeruginosa PAO1) [µg/mL] | MIC Δ3 Pore [6] [µg/mL]
[H]/N=C(/N)N[C@H]1[C@H](O)[C@@H](O)[C@H](O[C@@H]2O[C@@H](C)[C@](O)(C=O)[C@H]2O[C@@H]2O[C@@H](CO)[C@H](O)[C@@H](O)[C@@H]2NC)[C@@H](N/C(N)=N\[H])[C@@H]1O [Streptomycin] | 1 | 0.5 | 1 | 2 | 4 (≈ 6.88 µM) | 2 (≈ 3.44 µM) | 2 (≈ 3.44 µM) | 2 (≈ 3.44 µM) | – | – | – | – | – | – | –
CC1(C)S[C@@H]2[C@H](NC(=O)C(C(=O)O)c3ccccc3)C(=O)N2[C@H]1C(=O)O (some centres unmarked) [Carbenicillin] | 1 | 4 | 8 | 2 | 1 (≈ 2.64 µM) | 0.5 (≈ 1.32 µM) | 4 (≈ 10.6 µM) | 0.5 (≈ 1.32 µM) | 32 | 64 fold | 16 fold | 8 | 0.5 (≈ 1.32 µM) | 32 (≈ 84.6 µM) | 0.063 (≈ 0.166 µM)
Nc1ccc2cc3ccc(N)cc3nc2c1 [Proflavine] | 4 | 4 | 1 | 1 | 8 (≈ 38.2 µM) | 8 (≈ 38.2 µM) | 32 (≈ 153 µM) | 32 (≈ 153 µM) | – | – | – | – | – | – | –
O=C(N[C@H](CO)[C@H](O)c1ccc([N+](=O)[O-])cc1)C(Cl)Cl [Chloramphenicol] | 4 | 4 | 1 | 1 | 0.5 (≈ 1.55 µM) | 0.5 (≈ 1.55 µM) | 2 (≈ 6.19 µM) | 2 (≈ 6.19 µM) | 16 | 8 fold | 4 fold | 8 | 1 (≈ 3.09 µM) | 8 (≈ 24.8 µM) | 0.125 (≈ 0.387 µM)
CC1(C)S[C@@H]2[C@H](NC(=O)[C@H](N)c3ccccc3)C(=O)N2[C@H]1C(=O)O [Ampicillin] | – | – | – | – | 8 (≈ 22.9 µM) | 0.5 (≈ 1.43 µM) | 16 (≈ 45.8 µM) | 2 (≈ 5.72 µM) | – | – | – | – | – | – | –
CN(C)[C@@H]1C(O)=C(C(N)=O)C(=O)[C@@]2(O)C(O)=C3C(=O)c4c(O)cccc4[C@@](C)(O)[C@H]3C[C@@H]12 [Tetracycline] | 2 | 4 | 2 | 1 | 0.125 (≈ 0.281 µM) | 0.125 (≈ 0.281 µM) | 0.5 (≈ 1.13 µM) | 0.25 (≈ 0.563 µM) | 16 | 2 fold | 8 fold | 64 | 2 (≈ 4.5 µM) | 4 (≈ 9 µM) | 0.031 (≈ 0.0698 µM)
CCC[C@@H]1C[C@@H](C(=O)N[C@@H]([C@H]2O[C@H](SC)[C@H](O)[C@@H](O)[C@H]2O)[C@@H](C)O)N(C)C1 [Lincomycin] | 8 | 8 | 1 | 1 | 64 (≈ 157 µM) | 64 (≈ 157 µM) | 512 (≈ 1260 µM) | 512 (≈ 1260 µM) | – | – | – | – | – | – | –
Cc1onc(-c2ccccc2Cl)c1C(=O)N[C@@H]1C(=O)N2[C@@H]1SC(C)(C)[C@@H]2C(=O)O [Cloxacillin] | 128 | 512 | 4 | 1 | 1 (≈ 2.29 µM) | 1 (≈ 2.29 µM) | 512 (≈ 1170 µM) | 128 (≈ 294 µM) | 64 | ≧8 fold | ≧4 fold | 16 | 128 (≈ 294 µM) | > 2050 | 8 (≈ 18.4 µM)
CO[C@@H]1[C@@H](OC(N)=O)[C@@H](O)[C@H](Oc2ccc3c(O)c(NC(=O)c4ccc(O)c(CC=C(C)C)c4)c(=O)oc3c2C)OC1(C)C [Novobiocin] | 256 | 256 | 4 | 4 | 0.5 (≈ 0.816 µM) | 0.125 (≈ 0.204 µM) | 128 (≈ 209 µM) | 32 (≈ 52.2 µM) | 64 | 16 fold | 8 fold | 32 | 32 (≈ 52.2 µM) | 512 (≈ 836 µM) | 1 (≈ 1.63 µM)
CCn1cc(C(=O)O)c(=O)c2ccc(C)nc21 [Nalidixic acid] | 8 | 8 | 1 | 1 | 1 (≈ 4.31 µM) | 1 (≈ 4.31 µM) | 8 (≈ 34.4 µM) | 8 (≈ 34.4 µM) | 16 | 8 fold | 2 fold | 4 | 8 (≈ 34.4 µM) | 64 (≈ 276 µM) | 2 (≈ 8.61 µM)
NCC[C@H](O)C(=O)N[C@@H]1C[C@H](N)[C@@H](O[C@H]2O[C@H](CN)[C@@H](O)[C@H](O)[C@H]2O)[C@H](O)[C@H]1O[C@H]1O[C@H](CO)[C@@H](O)[C@H](N)[C@H]1O [Amikacin] | 1 | 1 | 1 | 1 | 2 (≈ 3.42 µM) | 2 (≈ 3.42 µM) | 2 (≈ 3.42 µM) | 2 (≈ 3.42 µM) | 2 | 1 fold | 0.5 fold | 1 | 1 (≈ 1.71 µM) | 1 (≈ 1.71 µM) | 1 (≈ 1.71 µM)
C[C@H]1COc2c(N3CCN(C)CC3)c(F)cc3c(=O)c(C(=O)O)cn1c23 [Levofloxacin] | – | – | – | – | 0.004 (≈ 0.0111 µM) | 0.004 (≈ 0.0111 µM) | – | 0.016 (≈ 0.0443 µM) | – | – | – | – | – | 0.125 (≈ 0.346 µM) | –
